Measured values reported in ChEMBL document CHEMBL4706771, “Discovery of Orally Bioavailable Ligand Efficient Quinazolindiones as Potent and Selective Tankyrases Inhibitors” (ACS Med Chem Lett, 2021).
Activity calls are given as the source filed them. The calls are words filed in the database; no cut-off is given here.

Key:
[1] = target: Cytochrome P450 2C19 (Homo sapiens, UniProt P33261); assay: Inhibition of CYP2C19 (unknown origin); type: ADME
[2] = target: T1, Poly [ADP-ribose] polymerase tankyrase-1 (Homo sapiens, UniProt O95271); assay: Inhibition of human TNKS1 incubated for 1 to 2 hrs by fluorescence polarization assay
T1 sequence (O95271 whole entry): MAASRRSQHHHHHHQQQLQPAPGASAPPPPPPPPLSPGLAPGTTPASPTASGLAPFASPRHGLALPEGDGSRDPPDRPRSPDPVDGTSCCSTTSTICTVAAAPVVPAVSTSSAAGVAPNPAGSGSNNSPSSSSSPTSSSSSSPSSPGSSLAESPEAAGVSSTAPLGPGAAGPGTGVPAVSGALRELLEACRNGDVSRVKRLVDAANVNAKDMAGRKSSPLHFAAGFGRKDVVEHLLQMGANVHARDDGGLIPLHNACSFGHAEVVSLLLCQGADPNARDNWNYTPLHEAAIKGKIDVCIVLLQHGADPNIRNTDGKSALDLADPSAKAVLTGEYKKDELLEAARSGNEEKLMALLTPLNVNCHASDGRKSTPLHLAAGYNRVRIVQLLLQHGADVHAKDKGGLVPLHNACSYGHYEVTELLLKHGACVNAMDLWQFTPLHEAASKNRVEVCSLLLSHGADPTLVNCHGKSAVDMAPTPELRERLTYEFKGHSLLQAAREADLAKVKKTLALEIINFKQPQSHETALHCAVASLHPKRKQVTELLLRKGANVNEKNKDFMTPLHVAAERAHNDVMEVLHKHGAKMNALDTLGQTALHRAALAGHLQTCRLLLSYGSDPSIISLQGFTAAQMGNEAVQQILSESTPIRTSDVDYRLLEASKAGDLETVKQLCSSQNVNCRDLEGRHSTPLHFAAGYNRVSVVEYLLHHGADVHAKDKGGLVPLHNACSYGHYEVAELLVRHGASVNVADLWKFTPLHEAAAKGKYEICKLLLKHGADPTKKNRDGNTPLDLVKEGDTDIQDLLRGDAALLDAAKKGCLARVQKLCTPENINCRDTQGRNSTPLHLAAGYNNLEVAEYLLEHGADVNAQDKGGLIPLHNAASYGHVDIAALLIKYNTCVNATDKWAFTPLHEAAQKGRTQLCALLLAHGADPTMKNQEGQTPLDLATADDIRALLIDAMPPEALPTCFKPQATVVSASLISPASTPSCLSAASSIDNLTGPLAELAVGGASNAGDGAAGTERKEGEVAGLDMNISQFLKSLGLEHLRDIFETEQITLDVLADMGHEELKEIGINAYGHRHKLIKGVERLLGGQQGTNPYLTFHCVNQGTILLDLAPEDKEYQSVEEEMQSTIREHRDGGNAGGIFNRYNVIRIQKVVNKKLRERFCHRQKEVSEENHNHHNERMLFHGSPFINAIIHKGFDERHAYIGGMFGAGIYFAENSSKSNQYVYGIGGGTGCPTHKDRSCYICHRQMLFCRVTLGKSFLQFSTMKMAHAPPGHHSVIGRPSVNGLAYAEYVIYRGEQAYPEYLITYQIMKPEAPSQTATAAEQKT

[3] = Mutagenicity in Salmonella typhimurium TA100 by ames test; type: toxicity; conditions: salmonella enterica subsp. enterica serovar typhimurium
[4] = Oral bioavailability in Beagle dog at 2 mg/kg; type: ADME, organism-based, Canis lupus familiaris; conditions: in vivo
[5] = Volume of distribution in Sprague-Dawley rat at 8.6 mg/kg, po or 0.5 mg/kg, iv; type: ADME, organism-based; conditions: in vivo
[6] = target: Cytochrome P450 3A4 (Homo sapiens, UniProt P08684); assay: Inhibition of CYP3A4 (unknown origin); type: ADME
[7] = Mutagenicity in Salmonella typhimurium TA98 by ames test; type: toxicity; conditions: salmonella enterica subsp. enterica serovar typhimurium
[8] = Toxicity in Wistar Han rat assessed as tolerability at >= 100 mg/kg, po administered for 7 days and measured on day 7; type: organism-based; conditions: in vivo, 168 h, time 7 day
[9] = Toxicity in Wistar Han rat assessed as abnormal soft fecal consistency at >= 100 mg/kg, po administered for 7 days and measured on day 7; type: organism-based; conditions: in vivo, 168 h, time 7 day
[10] = Toxicity in Wistar Han rat assessed as abnormal watery fecal consistency at >= 100 mg/kg, po administered for 7 days and measured on day 7; type: organism-based; conditions: in vivo, 168 h, time 7 day
[11] = tested on: NCI-H292; assay: Antitumor activity against human NCI-H292 cells xenografted in BALB/c mouse assessed as reduction in tumor growth at 3 mg/kg, po administered for 14 days and measured on day 14; type: functional, organism-based; conditions: time 14.0 day
[12] = Mutagenicity in Escherichia coli WP2uvrA in presence of S9 fraction by ames test; type: toxicity, subcellular
[13] = tested on: NCI-H292; assay: Antitumor activity against human NCI-H292 cells xenografted in BALB/c mouse assessed as reduction in tumor volume at 10 to 30 mg/kg, po administered for 14 days and measured on day 14; type: functional, organism-based; conditions: dose 10-30 mg/kg, time 14.0 day

Sequence of Cytochrome P450 3A4 (P08684 whole entry): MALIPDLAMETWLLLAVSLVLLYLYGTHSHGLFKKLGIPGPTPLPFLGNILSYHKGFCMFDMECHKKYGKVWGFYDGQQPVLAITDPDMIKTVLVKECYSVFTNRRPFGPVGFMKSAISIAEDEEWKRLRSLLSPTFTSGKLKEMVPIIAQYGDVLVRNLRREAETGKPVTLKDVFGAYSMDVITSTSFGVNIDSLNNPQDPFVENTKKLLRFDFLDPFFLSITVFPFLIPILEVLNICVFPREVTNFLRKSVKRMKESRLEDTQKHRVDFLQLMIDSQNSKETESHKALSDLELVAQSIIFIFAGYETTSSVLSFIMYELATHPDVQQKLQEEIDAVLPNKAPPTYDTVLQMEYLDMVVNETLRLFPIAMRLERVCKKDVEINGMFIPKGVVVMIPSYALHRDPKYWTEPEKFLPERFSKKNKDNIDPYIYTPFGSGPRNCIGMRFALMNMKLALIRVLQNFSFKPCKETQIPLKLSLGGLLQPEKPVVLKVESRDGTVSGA
Sequence of Cytochrome P450 2C19 (P33261 whole entry): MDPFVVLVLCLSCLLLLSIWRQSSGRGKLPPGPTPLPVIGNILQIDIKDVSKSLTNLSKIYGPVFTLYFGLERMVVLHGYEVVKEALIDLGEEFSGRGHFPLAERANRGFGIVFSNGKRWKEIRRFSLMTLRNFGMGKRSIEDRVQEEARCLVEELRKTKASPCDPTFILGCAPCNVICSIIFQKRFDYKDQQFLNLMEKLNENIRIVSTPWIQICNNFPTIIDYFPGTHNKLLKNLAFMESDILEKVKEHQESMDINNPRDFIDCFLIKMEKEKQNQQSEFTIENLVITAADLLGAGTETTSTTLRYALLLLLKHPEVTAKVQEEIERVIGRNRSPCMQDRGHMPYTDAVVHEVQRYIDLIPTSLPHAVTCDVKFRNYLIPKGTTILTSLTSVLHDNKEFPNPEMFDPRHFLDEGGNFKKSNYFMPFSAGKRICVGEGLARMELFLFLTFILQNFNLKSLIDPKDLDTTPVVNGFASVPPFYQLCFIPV

SMILES: Cc1cccc2c1c(=O)n(C[C@H]1CC[C@H](C(=O)O)CC1)c(=O)n2Cc1cccc(C(F)(F)F)c1C#N
- IC50 [1]: 36 µM
- IC50 [2]: 4 nM
- Activity [3]: Non-Toxic
- bioavailability [4]: 52.2%
- Vd [5]: 0.97 L/kg
- IC50 [6]: > 100 µM
- Activity [7]: Non-Toxic
- Activity [8]: Toxic
- Activity [9]: Toxic
- Activity [10]: Toxic
- Activity [11]: Active
- Activity [12]: Non-Toxic
- Activity [13]: Active
